One data set concerns AMPK. As to the kind of experiment: AMPK activation (AMPKα immunoassay kit, phospho-Thr172) in MCF7 cells. The format is cell-based, human. More on the design: AMPK Activation 50 uM (degree of phosphorylated AMPKα Thr172): unit not given here. Conditions: 24 h; for AMPK Activation Fold: 50 uM compound vs 0 (no compound); for AMPK Activation 50 uM (degree of phosphorylated AMPKα Thr172): 50 uM compound. How it is done:
The MCF7 cells were put on a 6-well plate and incubated in a DMEM medium containing 10% fetal bovine serum in an incubator to which 5% CO2 was supplied to have a cell count of approximately 5×10^5. 50 μM of the derivatives synthesized in the examples were treated to the each culture medium, and the cells were incubated for 24 hours. Subsequently, the cells were lysed by a method presented in the operation manual of the AMPKα immunoassay kit, and 20 μg of cell lysates were yielded through protein assay.

In a further data set the test system is HCT116 cells. In words: Inhibition of cancer cell proliferation (MTT, GIC50). The class given is cell-based. Conditions: Homo sapiens, HCT-116, 48 h incubation. As to the method: HCT116 cells derived from human colorectal cancer were used, and a cancer cell proliferation inhibition effect of a biguanide derivative was confirmed by measuring a concentration value (cell growth inhibition concentration, GIC50) at which cell growth was inhibited 50% using a 3-(4,5-dimethylthiazol-2-yl)-2,5-diphenyltetrazolium bromide (MTT) reagent.
First, the HCT116 cells were put on a 96-well plate and incubated for 24 hours to each have cell count of approximately 5000 in a DMEM medium containing 10% fetal bovine serum. Subsequently, to obtain the GIC50 value of each compound, 100 μM (or 200 μM), 25 μM, 6.25 μM, 1.56 μM or 0.39 μM of the compound was treated to each culture medium and then incubated for 48 hours. To confirm living cells after treatment with the compound, MTT was added to each culture medium and further incubated for 3 hours. Generated formazane crystal was dissolved using dimethyl sulfoxide (DMSO), and absorbance of the solution was measured at 560 nm. After the 48-hour incubation, a ratio of […] synthesized in the examples was indicated as cell viability (%) according to each administered concentration. A cell viability curve was plotted using the cell viability (%) and the calculated concentration value (GIC50) of the compound, at which 50% of the growth was inhibited, to confirm an effect on the inhibition of cancer cell proliferation.

Usually IC50 stands for the concentration needed to halve the response being measured. As usually defined, the melting point is the temperature of the solid-liquid transition. Turning to `CCCCN/C(=N\C1CCCC1)NC(=N)N.Cl` [Example 14, N4-cyclopentyl-N5-butyl biguanide hydrochloride], the melting point fell in the range of 190 to 191 °C. Moreover, in the data set with AMPK, the “AMPK Activation Fold” value is given as 3.4 and the “AMPK Activation 50 uM (degree of phosphorylated AMPKα Thr172)” value (from here on “AMPK Activation 50 uM”) was 23.2. For the same compound, the IC50 in the data set with HCT116 cells was greater than 100 µM.
With `CCCCN/C(=N\C12CC3CC(CC(C3)C1)C2)NC(=N)N.Cl` [Example 16, N4-adamantyl-N5-butyl biguanide hydrochloride], the melting point was in the range of 193 to 194 °C. Besides, in the data set on AMPK, the “AMPK Activation Fold” value is given as 6.7 and the “AMPK Activation 50 uM” value was found to be 35.3. The IC50 with HCT116 cells came to 34.7 µM.
On the same counts, the results for `CCCCN/C(=N\c1ccc(Br)cc1)NC(=N)N.Cl` [Example 17, N4-(4-bromo)phenyl-N5-butyl biguanide hydrochloride] are 195 to 196 °C, 3.9, 26.3 and 126 µM.
`CCCCN/C(=N\Cc1ccccc1Cl)NC(=N)N.Cl` [Example 19, N4-(2-chloro)benzyl-N5-butyl biguanide hydrochloride] showed a melting point of 147 to 148 °C. Moreover, in the data set with AMPK, the “AMPK Activation Fold” value turned out to be 2.8 and the “AMPK Activation 50 uM” value is recorded as 19.1. Further, the IC50 with HCT116 cells was greater than 100 µM.
Taken in the same sequence, the figures for `CCCCN/C(=N\CCc1cccs1)NC(=N)N.Cl` [Example 24, N4-(thiophene-2-yl)ethyl-N5-butyl biguanide hydrochloride] were 131 to 133 °C, 4.4, 29.9 and greater than 100 µM.
On to `Cl.N=C(N)N/C(=N/Cc1cccnc1)NC1CCCCC1` [Example 26, N4-(pyridine-3-yl)methyl-N5-cyclohexyl biguanide hydrochloride], for which the melting point is 265 to 266 °C. In addition, in the data set on AMPK, the “AMPK Activation Fold” value turned out to be 2.3 and the “AMPK Activation 50 uM” value was 15.4. The compound also came in with an IC50 in the data set with HCT116 cells greater than 100 µM.
On the same counts, the results for `Cl.N=C(N)N/C(=N/CCc1ccccc1)NC1CCCCC1` [Example 27, N4-(phenethyl)-N5-cyclohexyl biguanide hydrochloride] are 183 to 184 °C, 2.7, 18.7 and greater than 100 µM.
`Cl.N=C(N)N/C(=N/Cc1cccnc1)Nc1ccccc1` [Example 28, N4-(pyridine-3-yl)methyl-N5-phenyl biguanide hydrochloride] gave a melting point of 189 to 190 °C. Further, in the data set on AMPK, the “AMPK Activation Fold” value was 1.0 and the “AMPK Activation 50 uM” value worked out at 6.7. The IC50 in the data set with HCT116 cells was greater than 100 µM.
On the same counts, the results for `Cl.N=C(N)N/C(=N/C1CCCC1)NCc1ccccc1` [Example 30, N4-cyclopentyl-N5-benzyl biguanide hydrochloride] are 166 to 167 °C, 1.4, 7.3 and greater than 200 µM.
As to `Cl.N=C(N)N/C(=N/Cc1ccco1)NCc1ccccc1` [Example 32, N4-(furan-2-yl)methyl-N5-benzyl biguanide hydrochloride], the melting point was 116 to 117 °C. In addition, in the data set on AMPK, the “AMPK Activation Fold” value came to 2.5 and the “AMPK Activation 50 uM” value was found to be 16.9. Moreover, the IC50 with HCT116 cells is greater than 100 µM.
Taken in the same sequence, the figures for `Cl.N=C(N)N/C(=N/C12CC3CC(CC(C3)C1)C2)NCCc1ccccc1` [Example 34, N4-adamantyl-N5-(phenethyl)biguanide hydrochloride] were 251 to 252 °C, 8.3, 20.8 and 18.7 µM.
`Cl.N=C(N)N/C(=N/c1ccc(C(F)(F)F)cc1)NCCc1ccccc1` [Example 37, N4-(4-trifluoromethyl)phenyl-N5-(phenethyl)biguanide hydrochloride] displayed a melting point of 150 to 151 °C. Besides, in the data set with AMPK, the “AMPK Activation Fold” value worked out at 4.1 and the “AMPK Activation 50 uM” value turned out to be 10.2. The IC50 in the data set with HCT116 cells is 12.4 µM.
In turn, `Cl.N=C(N)N/C(=N/Cc1ccc2c(c1)OCO2)NCCc1ccccc1` [Example 39, N4-(benzo[1,3]dioxol-5-yl)methyl-N5-(phenethyl)biguanide hydrochloride] returned a melting point of 168 to 169 °C. In the data set on AMPK, the “AMPK Activation Fold” value is given as 0.9 and the “AMPK Activation 50 uM” value is recorded as 6.4. For the same compound, the IC50 in the data set with HCT116 cells is greater than 100 µM.
`Cl.N=C(N)N/C(=N/Cc1ccccc1)NCCc1ccccc1` [Example 40, N4-benzyl-N5-(phenethyl)biguanide hydrochloride] yielded a melting point of 165 to 166 °C. Moreover, in the data set with AMPK, the “AMPK Activation Fold” value was found to be 3.9 and the “AMPK Activation 50 uM” value was determined as 20.5. In addition, in the data set on HCT116 cells, the IC50 was 85.6 µM.
On to `Cl.N=C(N)N/C(=N/Cc1ccc(F)cc1)NCCc1ccccc1` [Example 41, N4-(4-fluoro)benzyl-N5-(phenethyl)biguanide hydrochloride], for which the melting point was 125 to 127 °C. In the data set with AMPK, the “AMPK Activation Fold” value is recorded as 4.0 and the “AMPK Activation 50 uM” value was determined as 10.1. Further, 42.8 µM corresponded to half-maximal inhibition in the data set with HCT116 cells (IC50).
The compound `Cl.N=C(N)N/C(=N/CCc1cccs1)NCCc1ccccc1` [Example 42, N4-(thiophene-2-yl)ethyl-N5-(phenethyl)biguanide hydrochloride] gave a melting point of 183 to 185 °C. In the data set on AMPK, the “AMPK Activation Fold” value was 5.9 and the “AMPK Activation 50 uM” value turned out to be 31.5. In the data set with HCT116 cells, this compound registered an IC50 of 76 µM.
Compound `Cl.N=C(N)N/C(=N/CCc1ccccc1)NCCc1ccccc1` [Example 43, N4-N5-di(phenethyl)biguanide hydrochloride] returned a melting point of 183 to 184 °C. In the data set on AMPK, the “AMPK Activation Fold” value was determined as 4.5 and the “AMPK Activation 50 uM” value worked out at 23.8. This compound also registered an IC50 in the data set with HCT116 cells of 70.2 µM.
On the same counts, the results for `C/N=C(/NC(=N)N)N(C)Cc1ccccc1.Cl` [Example 44, N4-methyl-N5,N5-(benzyl)(methyl)biguanide hydrochloride] are 120 to 122 °C, 1.9, 12.8 and greater than 100 µM.
Turning to `CCCC/N=C(/NC(=N)N)N(Cc1ccccc1)C(C)C.Cl` [Example 45, N4-butyl-N5,N5-(benzyl)(isopropyl)biguanide hydrochloride], the melting point lay within 170 to 171 °C. Besides, in the data set with AMPK, the “AMPK Activation Fold” value is listed as 1.0 and the “AMPK Activation 50 uM” value amounted to 7.1. In the data set on HCT116 cells, this compound had an IC50 greater than 100 µM.
On to `CN(CCc1ccccc1)/C(=N\CCc1ccccc1)NC(=N)N.Cl` [Example 47, N4-(phenethyl)-N5,N5-(phenethyl)(methyl)biguanide hydrochloride], for which the melting point was 144 to 145 °C. Besides, in the data set with AMPK, the “AMPK Activation Fold” value turned out to be 1.1 and the “AMPK Activation 50 uM” value is recorded as 7.2. This compound returned an IC50 in the data set with HCT116 cells greater than 100 µM.
